In patent publication US6930222B2, “In vivo animal model of human leukemia” (The Scripps Research Institute, priority 2000, dated 2005):

Test system: primary T-ALL obtained from patients
Experiment: in vitro leukemia colony assay (methylcellulose, IL-2 and PMA)
Format: cell-based, human
Conditions: 10 ng/ml
Source text: To characterize the nature of the enhancing activity on leukemia engraftment, colony formation of leukemia clonogenic cells was examined in vitro in the presence of cord blood or cord blood derived mesenchymal stem cell conditioned medium. The in vitro leukemia colony assay is based on the ability of leukemic clonogenic cells to proliferate and form colonies in response to growth factors such as IL-2. These leukemic “progenitor” cells have been implicated in the maintenance and expansion of leukemic blast populations.
On microscopic analysis, there is a wide range of colony sizes in the samples to which conditioned medium was added. The colonies in the cultures were individually picked, pooled for similar sizes of colonies, and the number of leukemia cells counted.
Using this primary leukemia sample, leukemia colony forming assay with the addition of cord blood conditioned medium was performed. […] On day 14, leukemia colonies were individually picked. Approximately 1.4×10^6 cells were recovered, and these cells were pooled for flow cytometric analysis. The vast majority of cells are uniquely CD45^−CD7^+, CD45^−CD34^+, and CD7^+CD34^+. Collectively, the results are consistent with approximately 90% of the harvested cells from in vitro cultures having the surface phenotype CD45^−CD7^+CD34^+, identical to the atypical phenotype of the primary leukemia of this patient. […]

recombinant IL-15: potent immunoregulatory cytokine, also a T-cell growth factor
stimulation of colony formation of primary leukemia: about 80%
